Measurements: US10570431B2, “Compositions comprising a polypeptide having cellulolytic enhancing activity and a heterocyclic compound and uses thereof” (priority 2013, dated 2020)
Read-outs that look alike come from different tables or passages of the source.

Tests used:
Format in all cases: biochemical
[1] = tested on: Trichoderma reesei cellulase composition; conditions: milled unwashed PCS, compound 5 mM, no GH61
[2] = tested on: Trichoderma reesei cellulase composition; assay: Hydrolysis of AVICEL (microcrystalline cellulose) by the T. reesei cellulase composition, with/without GH61 polypeptide or heterocyclic compound; conditions: for heterocyclic compound effect(no GH61) (ratio of percent conversion with compound to without) / heterocyclic compound effect(no GH61): AVICEL; for Percent conversion of AVICEL: GH61 present, no heterocyclic compound, one experiment
[3] = tested on: Trichoderma reesei cellulase composition; conditions: milled washed PCS, no GH61
[4] = compound 10 mM, cellulase 2 mg per g cellulose, especially at day 3
[5] = 1 day, 13.7±0.6% in the absence of GH61
[6] = 3 days, 28.6±0.4% in the absence of GH61
[7] = 7 days, 44±1% in the absence of GH61

## O=C(CO)c1ccccc1 [2-hydroxyacetophenone]
[1]; cellulase 2 mg per g cellulose, 1, 3 and 7 days
  heterocyclic compound effect(no GH61): greater than 1
[2]; compound 5 mM, 1, 3 and 7 days
  heterocyclic compound effect(no GH61) (ratio of percent conversion with compound to without): less than 1
[2]; compound 10 mM, 1 and 3 days
  heterocyclic compound effect(no GH61): significantly decreased the day 3 hydrolysis
[3]; compound 5 mM, 1, 3 and 7 days
  heterocyclic compound effect(no GH61): slightly decreased

## C=C(C)CO [2-methyl-2-propen-1-ol]
[2]; compound 5 mM, 1, 3 and 7 days
  heterocyclic compound effect(no GH61) (ratio of percent conversion with compound to without): decreased later stages of hydrolysis

## O=CC(=O)C[C@H](O)[C@H](O)CO [3-deoxyglucosone, 3-deoxy-D-erythro-hexosulose]
[2]; compound 5 mM, 1, 3 and 7 days
  heterocyclic compound effect(no GH61) (ratio of percent conversion with compound to without): ~1

## Cc1cc(O)no1 [3-hydroxy-5-methylisoxazole]
[2]; compound 5 mM, 1, 3 and 7 days
  heterocyclic compound effect(no GH61) (ratio of percent conversion with compound to without): ~1

## CC1=C(O)C(=O)CO1 [4-hydroxy-5-methyl-3-furanone]
[3]; [4]
  heterocyclic compound effect(no GH61): < 1

## O=c1cc(O)c2ccccc2o1 [4-hydroxycoumarin]
[2]; compound 1 mM, 1, 3 and 7 days
  heterocyclic compound effect(no GH61): very slightly decreased

## O=Cc1ccc(CO)o1 [5-(hydroxymethyl)furfural]
[2]; compound 1 mM, 1, 3 and 7 days
  heterocyclic compound effect(no GH61): greater than 1

## OC[C@H]1OC=C[C@@H](O)[C@@H]1O [D-glucal, 1,5-anhydro-2-deoxy-D-arabino-hex-1-enitol]
[2]; compound 5 mM, 1, 3 and 7 days
  heterocyclic compound effect(no GH61) (ratio of percent conversion with compound to without): less than 1

## O=C1O[C@H](CO)[C@H](O)[C@H]1O [D-xylonic γ-lactone]
[2]; compound 5 mM, day 1 or 7
  heterocyclic compound effect(no GH61): ~1

## O=C1OC(C(O)CO)C(=O)C1=O (stereo not drawn) [dehydroascorbic acid, [1,2-dihydroxyethyl]furan-2,3,4(5H)-trione]
[1]; mid to late stages of hydrolysis
  heterocyclic compound effect(no GH61): greater than 1
[2]; compound 5 mM, 1, 3 and 7 days
  heterocyclic compound effect(no GH61) (ratio of percent conversion with compound to without): very slightly decreased
[2]; compound 10 mM, 1 and 3 days
  heterocyclic compound effect(no GH61): very slightly decreased the day 3 hydrolysis
[3]; compound 5 mM, 1, 3 and 7 days
  heterocyclic compound effect(no GH61): very slightly decreased
[3]; [4]
  heterocyclic compound effect(no GH61): < 1

## O=C1O[C@H](CO)[C@@H](O)[C@H]1O [ribonic γ-lactone]
[2]; compound 5 mM, 1, 3 and 7 days
  heterocyclic compound effect(no GH61) (ratio of percent conversion with compound to without): less than 1

B1: Talaromyces stipitatus GH61A polypeptide: GH61A polypeptide having cellulolytic enhancing activity (SEQ ID NO: 164), recombinantly prepared as described in Example 3 (protein, listed as Talaromyces stipitatus)
chain: MPSTKVAALSAVLALASTVAGHGFVQNIVIDGKSYTGYLVNQYPYQSNPPAVIGWSTTATDLGFVDGSGYTNPDIICHKNAKPGQLSAPVAAGGKVELEWTTWPESHHGPVISYLANCNGDCTTVDKTKLEFVKIDQRGLIDDSNPPGTWAADQLIAANNSWTVTIPESIAPGNYVLRHEIIALHSANNATGAQNYPQCINLQITGSGTANPSGTPGEKLYTPTDPGILVNIYQSLSSYVIPGPTLWSGAAAHVVATAAGSATGVASATATPTTLVTAVSSPTGAPSVVTPEAPSVTSFAPVVTVTDVVTVTTVITTTIS
[2]; [5]
  Percent conversion of AVICEL: 13.6±0.4%
[2]; [6]
  Percent conversion of AVICEL: 27.9±0.2%
[2]; [7]
  Percent conversion of AVICEL: 44.7±0.5%

B2: Thielavia terrestris GH61E polypeptide: GH61E polypeptide having cellulolytic enhancing activity (SEQ ID NO: 8), recombinantly prepared using Trichoderma reesei RutC30 as a host (protein, listed as Thielavia terrestris)
chain: MLANGAIVFLAAALGVSGHYTWPRVNDGADWQQVRKADNWQDNGYVGDVTSPQIRCFQATPSPAPSVLNTTAGSTVTYWANPDVYHPGPVQFYMARVPDGEDINSWNGDGAVWFKVYEDHPTFGAQLTWPSTGKSSFAVPIPPCIKSGYYLLRAEQIGLHVAQSVGGAQFYISCAQLSVTGGGSTEPPNKVAFPGAYSATDPGILINIYYPVPTSYQNPGPAVFSC
[2]; 1 day, 19.5±0.2% in the absence of GH61
  Percent conversion of AVICEL: 20.5±0.5%
[2]; 3 days, 27±1% in the absence of GH61
  Percent conversion of AVICEL: 27±1%
[2]; 7 days, 43±1% in the absence of GH61
  Percent conversion of AVICEL: 43.0±0.3%

B3: Aspergillus fumigatus GH61B polypeptide: GH61 polypeptide having cellulolytic enhancing activity (SEQ ID NO: 30), recombinantly prepared using Aspergillus oryzae JaL355 as a host (protein, listed as Aspergillus fumigatus)
chain: MTLSKITSIAGLLASASLVAGHGFVSGIVADGKYYGGYLVNQYPYMSNPPDTIAWSTTATDLGFVDGTGYQSPDIICHRDAKNGKLTATVAAGSQIEFQWTTWPESHHGPLITYLAPCNGDCATVDKTTLKFVKIAAQGLIDGSNPPGVWADDEMIANNNTATVTIPASYAPGNYVLRHEIIALHSAGNLNGAQNYPQCFNIQITGGGSAQGSGTAGTSLYKNTDPGIKFDIYSDLSGGYPIPGPALFNA
[2]; [5]
  Percent conversion of AVICEL: 13.6±0.2%
[2]; [6]
  Percent conversion of AVICEL: 29±1%
[2]; [7]
  Percent conversion of AVICEL: 46±2%

B4: Trichoderma reesei GH61B polypeptide: GH61B polypeptide having cellulolytic enhancing activity (SEQ ID NO: 16), recombinantly prepared using Aspergillus oryzae JaL250 as a host (protein, listed as Trichoderma reesei)
chain: MKSCAILAALGCLAGSVLGHGQVQNFTINGQYNQGFILDYYYQKQNTGHFPNVAGWYAEDLDLGFISPDQYTTPDIVCHKNAAPGAISATAAAGSNIVFQWGPGVWPHPYGPIVTYVVECSGSCTTVNKNNLRWVKIQEAGINYNTQVWAQQDLINQGNKWTVKIPSSLRPGNYVFRHELLAAHGASSANGMQNYPQCVNIAVTGSGTKALPAGTPATQLYKPTDPGILFNPYTTITSYTIPGPALWQG
[2]; [5]
  Percent conversion of AVICEL: 13.5±0.4%
[2]; [6]
  Percent conversion of AVICEL: 29±2%
[2]; [7]
  Percent conversion of AVICEL: 44±2%

B5: Penicillium pinophilum GH61A polypeptide: GH61A polypeptide having cellulolytic enhancing activity (SEQ ID NO: 32), recombinantly prepared using Aspergillus oryzae HowB101 as a host (protein, listed as Penicillium pinophilum)
chain: MPSTKVAALSAVLALASTVAGHGFVQNIVIDGKSYSGYLVNQFPYESNPPAVIGWATTATDLGFVAPSEYTNADIICHKNATPGALSAPVAAGGTVELQWTTWPDSHHGPVISYLANCNGNCSTVDKTKLDFVKIDQGGLIDDTTPPGTWASDKLIAANNSWTVTIPSTIAPGNYVLRHEIIALHSAGNADGAQNYPQCINLEITGSGTAAPSGTAGEKLYTSTDPGILVNIYQSLSTYVIPGPTLWSGAANGAVATGSATAVATTATASATATPTTLVTSVAPASSTFATAVVTTVAPAVTDVVTVTDVVTVTTVITTTVL
[2]; [5]
  Percent conversion of AVICEL: 14.1±0.4%
[2]; [6]
  Percent conversion of AVICEL: 28.5±0.5%
[2]; [7]
  Percent conversion of AVICEL: 46±2%
